One series addresses T1, Catenin beta-1 (Homo sapiens, UniProt P35222).
T1 sequence (P35222 whole entry): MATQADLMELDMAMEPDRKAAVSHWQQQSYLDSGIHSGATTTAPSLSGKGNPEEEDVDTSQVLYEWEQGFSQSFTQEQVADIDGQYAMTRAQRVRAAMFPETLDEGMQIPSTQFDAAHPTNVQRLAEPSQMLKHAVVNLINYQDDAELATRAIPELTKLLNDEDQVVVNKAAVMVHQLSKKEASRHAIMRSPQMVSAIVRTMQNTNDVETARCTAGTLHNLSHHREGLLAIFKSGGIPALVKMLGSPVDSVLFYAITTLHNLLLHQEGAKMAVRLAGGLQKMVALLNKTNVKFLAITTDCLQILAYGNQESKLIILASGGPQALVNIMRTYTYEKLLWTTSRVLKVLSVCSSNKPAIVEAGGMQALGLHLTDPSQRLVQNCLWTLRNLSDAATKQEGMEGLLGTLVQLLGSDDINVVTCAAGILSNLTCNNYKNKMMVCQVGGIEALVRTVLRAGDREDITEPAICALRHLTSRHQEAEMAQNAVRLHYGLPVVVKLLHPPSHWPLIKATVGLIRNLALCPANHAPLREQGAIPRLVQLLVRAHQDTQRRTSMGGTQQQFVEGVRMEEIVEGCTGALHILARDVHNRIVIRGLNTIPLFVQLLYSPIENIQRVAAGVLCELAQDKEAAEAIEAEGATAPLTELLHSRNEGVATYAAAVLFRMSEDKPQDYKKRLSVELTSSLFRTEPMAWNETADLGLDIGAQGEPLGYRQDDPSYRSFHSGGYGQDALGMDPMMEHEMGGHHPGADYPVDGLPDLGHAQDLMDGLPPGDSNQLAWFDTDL

For a further series, the system named is SW480. In words: Cytotoxicity against human SW480 cells assessed as reduction in cell viability measured after 72 hrs by MTS assay. It is filed as functional, cell-based. The conditions noted are these: SW480, 72 h. For orientation: Tetrazolium dyes change colour on reduction, which living cells bring about.
In a further series the test system is HCT-116. In words: Cytotoxicity against human HCT116 cells assessed as reduction in cell viability measured after 72 hrs by MTS assay. The series is classed as functional, cell-based. The conditions noted are these: HCT-116, 72 h.
The subject of another series is MDA-MB-231. In words: Cytotoxicity against human MDA-MB-231 cells assessed as reduction in cell viability measured after 72 hrs by MTS assay. It is filed as functional, cell-based. The following applies: MDA-MB-231, 72 h.
A further series has as its system MDA-MB-468. In words: Cytotoxicity against human MDA-MB-468 cells assessed as reduction in cell viability measured after 72 hrs by MTS assay. The series is classed as functional, cell-based. The conditions noted are these: MDA-MB-468, 72 h.
The next series deals with BT-20. In words: Cytotoxicity against human BT20 cells assessed as reduction in cell viability measured after 72 hrs by MTS assay. It is filed as functional, cell-based. The conditions noted are these: BT-20, 72 h.
The next series relates to A549. In words: Cytotoxicity against human A549 cells assessed as reduction in cell viability measured after 72 hrs by MTS assay. The series is classed as functional, cell-based. The following applies: A549, 72 h.
Series [1] is described as follows: Drug uptake in human SW480 cells assessed as cell-bound level per million cells at 25 uM measured after 3 hrs by HPLC-MS analysis. It is filed as ADME, cell-based. The conditions noted are these: sw480, 3 h.
Series [2] in a line: Prodrug conversion in human SW480 cells assessed as (S)-4-((S)-2-((S)-2-(5-Chloro-1H-indole-2-carboxamido)-3-(naphthalen-2-yl)propanamido)-3-(2H-tetrazol-5-yl)propanamido)-5-oxo-5-((4-(trifluoromethoxy)phenyl)amino)pentanoic Acid formation at 25 uM measured after 24 hrs by HPLC-MS analysis. It is filed as ADME, cell-based. The conditions noted are these: sw480, 24 h.

Some results are limits rather than exact numbers.

By IC50 is commonly meant the concentration at which inhibition is half-maximal. One may read the Ki as the equilibrium dissociation constant of an inhibitor or competing ligand from its target. Lower therefore signals a stronger hold on the target. As for `COC(=O)[C@H](CCC(=O)O)NC(=O)[C@H](CC(=O)O)NC(=O)[C@H](Cc1ccc2ccccc2c1)NC(=O)Cc1c[nH]c2cc(Cl)ccc12`, on Catenin beta-1, the concentration for half-maximal inhibition (IC50) was > 400 µM and the Ki was > 100 µM.

Consider `COC(=O)[C@H](CCC(=O)O)NC(=O)[C@H](CC(=O)O)NC(=O)[C@H](Cc1ccc2ccccc2c1)NC(=O)c1cc2cc(OC)ccc2[nH]1`, for which, at Catenin beta-1, the IC50 was > 400 µM and the Ki is > 100 µM.

As to `COC(=O)[C@H](CCC(=O)O)NC(=O)[C@H](CC(=O)O)NC(=O)[C@H](Cc1ccc2ccccc2c1)NC(=O)Cc1c[nH]c2ccc(Cl)cc12`, at Catenin beta-1, the IC50 is > 400 µM and the Ki was > 100 µM.

`COC(=O)[C@H](CCC(=O)O)NC(=O)[C@H](CC(=O)O)NC(=O)[C@H](Cc1ccc2ccccc2c1)NC(=O)Cc1nc2ccc(Cl)cc2o1`: on Catenin beta-1, the 50% inhibitory concentration (IC50) was > 400 µM and the Ki was > 100 µM.

On to `CCOC(=O)CC[C@H](NC(=O)[C@H](CC(=O)OCC)NC(=O)[C@H](Cc1ccc2ccccc2c1)NC(=O)c1cc2cc(OC)ccc2[nH]1)C(=O)OC`, for which the half-inhibitory concentration (IC50) with SW480, with HCT-116, in the series with MDA-MB-231, in the series with MDA-MB-468, with BT-20 and in the series on A549 was > 200 µM in each case. In addition, the IC50 against Catenin beta-1 was > 400 µM. In addition, at Catenin beta-1, the Ki was > 100 µM.

For the compound `COC(=O)[C@H](CCC(=O)O)NC(=O)[C@H](CC(=O)O)NC(=O)[C@H](Cc1ccc2ccccc2c1)NC(=O)Cc1nc2cc(Cl)ccc2s1`, on Catenin beta-1, the IC50 was > 400 µM and the inhibition constant Ki was > 100 µM.

For the compound `NC(=O)CC[C@H](NC(=O)[C@H](Cc1nn[nH]n1)NC(=O)[C@H](Cc1ccc2ccccc2c1)NC(=O)c1cc2cc(Cl)ccc2[nH]1)C(=O)Nc1ccc(OC(F)(F)F)cc1`, the IC50 in the series on SW480 worked out at 24.6 µM; in the series on HCT-116 it was 57.8 µM; in the series on MDA-MB-231, 29.3 µM; in the series with MDA-MB-468, 26.9 µM; in the series on BT-20 it was 29.3 µM; with A549, 47.5 µM.

Take `COC(=O)[C@H](CCC(=O)O)NC(=O)[C@H](CC(=O)O)NC(=O)[C@H](Cc1ccc2ccccc2c1)NC(=O)Cc1nc2ccc(Cl)cc2s1`: at Catenin beta-1, 88 µM corresponded to half-maximal inhibition (IC50) and affinity was put at a Ki of 22 µM.

As to `COC(=O)[C@H](CCC(=O)O)NC(=O)[C@H](CC(=O)O)NC(=O)[C@H](Cc1ccc2ccccc2c1)NC(=O)c1cc2ccc(Cl)cc2[nH]1`, at Catenin beta-1, the concentration for half-maximal inhibition (IC50) worked out at 60 µM and affinity was put at a Ki of 15 µM.

On to `COC(=O)[C@H](CCC(=O)O)NC(=O)[C@H](CC(=O)O)NC(=O)[C@H](Cc1ccc2ccccc2c1)NC(=O)Cc1nc2cc(Cl)ccc2[nH]1`, for which, at Catenin beta-1, the concentration for half-maximal inhibition (IC50) was > 400 µM and the Ki was > 100 µM.

Consider `CCOC(=O)CC[C@H](NC(=O)[C@H](Cc1nn[nH]n1)NC(=O)[C@H](Cc1ccc2ccccc2c1)NC(=O)c1cc2cc(Cl)ccc2[nH]1)C(=O)Nc1ccc(OC(F)(F)F)cc1`, for which the IC50 with SW480 turned out to be 17.7 µM; in the series on HCT-116, 60.6 µM; with MDA-MB-231, 16.6 µM; in the series with MDA-MB-468, 10.6 µM; with A549, 67.9 µM. Moreover, the Drug uptake in series [1] amounted to 1.4 nmol/million cells. In [2], the Drug metabolism entry is listed as “Metabolite_Notdetected”.

Regarding `COC(=O)[C@H](CCC(=O)O)NC(=O)[C@H](CC(=O)O)NC(=O)[C@H](Cc1ccc2ccccc2c1)NC(=O)c1cc2cc(C)ccc2[nH]1`, on Catenin beta-1, the half-maximal inhibitory concentration (IC50) is > 400 µM and the inhibition constant (Ki) is > 100 µM.

As for `COC(=O)[C@H](CCC(=O)O)NC(=O)[C@H](CC(=O)O)NC(=O)[C@H](Cc1ccc2ccccc2c1)NC(=O)Cc1nc2cc(Cl)ccc2o1`, at Catenin beta-1, the IC50 was > 400 µM and the inhibitory constant (Ki) is > 100 µM.

These data come from ChEMBL document CHEMBL4339194 (J Med Chem, 2019).
